ChEMBL document CHEMBL1201862, “PubChem BioAssay data set” (2004)
The source made the active and inactive calls.

What was measured:
[1] = target: Heat shock protein HSP 90-alpha (Homo sapiens, UniProt P07900); type: functional, organism-based
[2] = target: Lysine-specific demethylase 4C (Homo sapiens, UniProt Q9H3R0); test: inhibition of JMJD2C H3K9me3 demethylation – biochemical, DELFIA europium, cherry-picked samples, dose response (AID 488835); type: functional
Hexokinase HKDC1 = target: T1, Hexokinase HKDC1 (Homo sapiens, UniProt Q2TB90); test: activation of HKDC1 glucose phosphorylation – biochemical, W721R variant, dose response (AID 504730); type: functional
T1 sequence (Q2TB90 whole entry): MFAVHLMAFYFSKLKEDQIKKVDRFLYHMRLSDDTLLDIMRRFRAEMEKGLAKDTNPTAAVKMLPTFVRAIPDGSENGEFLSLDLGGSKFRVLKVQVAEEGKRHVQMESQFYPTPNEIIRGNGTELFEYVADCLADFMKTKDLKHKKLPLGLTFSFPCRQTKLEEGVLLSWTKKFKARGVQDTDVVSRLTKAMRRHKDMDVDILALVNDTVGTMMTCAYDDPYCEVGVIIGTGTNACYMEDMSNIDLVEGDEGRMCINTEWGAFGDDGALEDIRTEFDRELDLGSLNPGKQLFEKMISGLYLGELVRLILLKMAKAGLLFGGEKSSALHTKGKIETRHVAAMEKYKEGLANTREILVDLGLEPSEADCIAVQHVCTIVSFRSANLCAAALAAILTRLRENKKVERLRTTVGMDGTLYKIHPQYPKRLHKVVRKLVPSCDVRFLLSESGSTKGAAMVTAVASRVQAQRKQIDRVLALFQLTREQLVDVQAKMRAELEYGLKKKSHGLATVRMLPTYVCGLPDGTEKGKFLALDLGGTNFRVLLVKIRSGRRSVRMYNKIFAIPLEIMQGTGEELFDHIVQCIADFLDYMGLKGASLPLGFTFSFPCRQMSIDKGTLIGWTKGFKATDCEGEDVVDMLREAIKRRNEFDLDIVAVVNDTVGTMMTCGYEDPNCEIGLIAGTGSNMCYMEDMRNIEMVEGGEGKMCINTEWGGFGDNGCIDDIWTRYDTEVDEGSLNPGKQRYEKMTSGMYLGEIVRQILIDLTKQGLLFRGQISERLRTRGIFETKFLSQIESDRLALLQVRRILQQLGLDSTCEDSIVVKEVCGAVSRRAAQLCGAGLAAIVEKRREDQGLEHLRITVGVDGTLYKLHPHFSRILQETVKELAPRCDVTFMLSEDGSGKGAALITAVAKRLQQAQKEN

Sequence of Lysine-specific demethylase 4C (Q9H3R0 whole entry): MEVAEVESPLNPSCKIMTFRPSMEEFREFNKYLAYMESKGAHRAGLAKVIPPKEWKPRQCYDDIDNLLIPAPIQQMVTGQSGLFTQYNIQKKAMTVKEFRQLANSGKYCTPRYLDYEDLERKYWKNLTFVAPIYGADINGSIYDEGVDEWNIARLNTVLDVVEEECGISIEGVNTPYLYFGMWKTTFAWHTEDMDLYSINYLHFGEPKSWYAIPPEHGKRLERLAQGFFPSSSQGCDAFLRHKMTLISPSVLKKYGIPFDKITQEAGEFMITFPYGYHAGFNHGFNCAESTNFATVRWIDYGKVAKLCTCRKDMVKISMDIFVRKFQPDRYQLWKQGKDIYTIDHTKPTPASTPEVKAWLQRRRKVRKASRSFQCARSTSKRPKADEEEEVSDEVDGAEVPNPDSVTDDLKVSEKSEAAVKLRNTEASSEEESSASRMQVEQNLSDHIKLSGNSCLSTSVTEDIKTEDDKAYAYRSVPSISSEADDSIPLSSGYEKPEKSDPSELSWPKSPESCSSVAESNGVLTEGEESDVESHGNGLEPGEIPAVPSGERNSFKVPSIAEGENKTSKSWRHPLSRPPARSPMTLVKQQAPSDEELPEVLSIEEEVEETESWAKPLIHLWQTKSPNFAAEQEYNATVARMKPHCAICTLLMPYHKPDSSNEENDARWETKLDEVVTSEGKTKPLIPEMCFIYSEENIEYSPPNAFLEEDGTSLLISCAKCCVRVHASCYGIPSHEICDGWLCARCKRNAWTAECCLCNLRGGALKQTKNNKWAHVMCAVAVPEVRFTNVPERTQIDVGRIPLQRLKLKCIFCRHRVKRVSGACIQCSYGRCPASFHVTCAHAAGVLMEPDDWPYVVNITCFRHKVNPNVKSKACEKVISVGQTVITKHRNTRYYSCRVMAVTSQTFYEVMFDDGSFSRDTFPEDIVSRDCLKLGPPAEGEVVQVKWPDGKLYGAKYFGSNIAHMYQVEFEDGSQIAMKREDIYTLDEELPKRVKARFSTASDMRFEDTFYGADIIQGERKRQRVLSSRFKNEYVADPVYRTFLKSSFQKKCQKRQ

Question: How did the AC50 [1] turn out when `Clc1ccc(/N=c2\ssnc2Cl)nc1` was run?
Answer: The AC50 was 1.73 µM (active).

Question: And the AC50 [2]?
Answer: Its AC50 is 0.669 µM (active).

Question: And the EC50 (Hexokinase HKDC1)?
Answer: Its EC50 is 50.3 µM (inactive).
